Our source for the inhibition and IC50 values is patent US20220017516A1, “LOX INHIBITORS” (THE INSTITUTE OF CANCER RESEARCH: ROYAL CANCER HOSPITAL, priority 2018, published 2022).

For one experiment, the target named is T1, LOX (Mus musculus, UniProt P28301).
T1 construct: Full length LOX cDNA was then PCR cloned into pEGFP-N1 (Clonetech), or biosensor vector proGFP2—N1; expressed in transfected cells; host or cells: MDCK cells grown as cysts on Matrigel
T1 sequence (P28301 163-411): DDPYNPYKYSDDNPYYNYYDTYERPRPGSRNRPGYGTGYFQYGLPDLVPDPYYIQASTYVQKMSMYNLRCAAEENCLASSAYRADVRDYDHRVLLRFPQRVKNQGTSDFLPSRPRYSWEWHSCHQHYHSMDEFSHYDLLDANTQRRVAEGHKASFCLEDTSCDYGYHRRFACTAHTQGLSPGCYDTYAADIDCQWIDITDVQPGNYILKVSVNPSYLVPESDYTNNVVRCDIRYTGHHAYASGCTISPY
The experiment is described as follows: LOX activity in cysts assay (roGFP2 LOX biosensor in MDCK cysts). Format: cell-based. The settings on record: for inhibition at 10 µM: read-out: Cyst LOX @ 10 uM (% inhibition). The protocol:
All cell lines used in this study were purchased from American Type Culture Collection (ATCC). Mycoplasma contamination was routinely monitored by PCR. Cells used were not found to be Mycoplasma positive. MDCK cell lines were cultured in Dulbecco's Modified Eagle Medium (DMEM) supplemented with 10% fetal bovine serum (FBS) and 1% Penicillin Streptomycin solution (Pen Strep). For GFP constructs transfection in MDCK cells, lipofectamine 3000 was used according to manufactures protocols. Cells were either selected with G418 (Life Technologies) at 5 mg/ml. All cell culture reagents were purchased from Life Technologies.
To produce MDCK cysts, cells were cultured on Matrigel (Corning) with 2% Matrigel supplemented in DMEM with 10% FBS. Cysts were allowed to form for 10 days before subsequent studies.
Mouse LOX cDNA was purchased from OriGene. Full length LOX cDNA was then PCR cloned into pEGFP-N1 (Clonetech), or biosensor vector proGFP2—N1 (Hanson, 2004) using the following primers, […] (forward primer) and […] (reverse primer). For the insertion into pEGFP-N1 or proGFP2—N1, Nhel and Xhol restriction sites were added to forward and reverse primers accordingly. Mutant LOX constructs were made using QuickChange II site-directed mutagenesis kit (Agilent Technologies) following manufacture's protocol using LOX-GFP as template. To generate, roGFP2 versions of LOX mutant constructs, LOX mutant cDNA was transferred from pEGFP-N1 to proGFP2—N1 using Nhel and Xhol.
All photomicrographs were taken with a Leica TCS SP8 X confocal system. For LOX biosensor imaging, live MDCK cysts were used. The oxidised biosensor was excited using a 405 nm laser, while the reduced biosensor was excited with a 488 nm laser. Emission of the biosensor was recorded at 500 nm-530 nm range using sequential scans. Ratio images were generated following a published protocol {Kardash, 2011 #376}. Note, while the published protocol generates YFP/CFP ratio images, we used it to generate Oxidised/Reduced (roGFP2 ratio) ratio images. The roGFP2 ratio at the basal surface of MDCK cysts was used to indicate LOX inhibition. LOX inhibitors were added 30 min prior to imaging.
For clarity, readout for DMSO treated cysts represents 0% inhibition (no inhibition) and readout for BAPN at 1 mM is used as 100% inhibition (full inhibition).

The next experiment concerns the target T2, LOXL3 (Homo sapiens, UniProt P58215).
T2 construct: purchased R&D Systems/Bio-techne
T2 sequence (P58215 26-753): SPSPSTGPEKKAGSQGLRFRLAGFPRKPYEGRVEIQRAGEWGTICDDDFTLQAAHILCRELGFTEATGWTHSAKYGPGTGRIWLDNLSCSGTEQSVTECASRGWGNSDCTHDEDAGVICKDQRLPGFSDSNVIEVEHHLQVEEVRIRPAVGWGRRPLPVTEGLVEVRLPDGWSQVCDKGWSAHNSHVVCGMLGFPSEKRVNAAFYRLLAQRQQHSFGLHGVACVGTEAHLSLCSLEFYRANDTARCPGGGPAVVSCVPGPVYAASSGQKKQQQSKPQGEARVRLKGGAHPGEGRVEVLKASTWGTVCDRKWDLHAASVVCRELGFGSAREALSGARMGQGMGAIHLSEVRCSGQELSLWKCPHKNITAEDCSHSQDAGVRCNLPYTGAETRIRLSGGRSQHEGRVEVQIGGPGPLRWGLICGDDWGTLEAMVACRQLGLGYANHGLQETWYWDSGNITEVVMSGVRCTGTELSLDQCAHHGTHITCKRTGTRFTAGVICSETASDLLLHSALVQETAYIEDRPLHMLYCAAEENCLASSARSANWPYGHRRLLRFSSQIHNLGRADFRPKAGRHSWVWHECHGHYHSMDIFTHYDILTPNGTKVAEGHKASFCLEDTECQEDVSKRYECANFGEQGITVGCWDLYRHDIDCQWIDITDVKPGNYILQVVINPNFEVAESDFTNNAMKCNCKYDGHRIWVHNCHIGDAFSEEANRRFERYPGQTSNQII
The experiment is described as follows: LOX isoform activity assay (ROS Glo), LOXL3. The settings on record: 1 h incubation with enzyme. Format: biochemical. Here is the method:
LOX was extracted from pig skin by previously described methods (Shackleton and Hulmes, 1990). LOXL2 and LOXL3 were obtained from R&D Systems/Bio-techne. The Promega ROS Glo assay kit (G8821) was used to assess enzyme activity. Overall, test compound was added to either 384 well assay plates (Greiner) using a Labcyte Echo™ Acoustic Handler or to 96 well plates for a final assay concentration of 100, 30, 10, 3, 1, 0.3, 0.1, 0.03, 0.01 and 0.003 μM final assay concentration. Enzymes were diluted according to specific pre-determined activity in assay buffer (100 mM CHES, pH 9, 0.05% (w/v) pluronic F-127, 0.5% (w/v) BSA, 1 mM MgCl2, 1 M urea, 100 mM NaCl) and added to the plate. For LOXL2, the mixture was incubated for 20 min, 1 h or 20 h; for LOX and LOXL3, incubation time was 1 h. Cadaverine and H2O2 substrate were then added to each well (final assay concentration 19.56 mM and 25 μM respectively) and the plates were incubated for 1.5 h (for LOX) or 1 h (for LOXL2 and LOXL3) at room temperature. Finally, luciferin detection reagent was added and plates were incubated for 20 min at room temperature, protected from light. Luminescence was measured using a BMG LABTECH PHERAstar FS reader and resulting IC50 values were calculated using GraphPad Prism software.

The mark [1] stands for this setting: LOX, 10 uM, DMSO = 0%, BAPN 1 mM = 100% inhibition, inhibitor added 30 min prior to imaging.

The structures appear in SMILES notation. Where two headings read alike, the source gives them in different places.

Turning to `CCOc1ccc(N2C[C@H]3CN(C(=O)CS(=O)(=O)CCN)C[C@@H]2C(C)(C)C3)cc1` [Example 7, 2-((2-aminoethyl)sulfonyl)-1-((1S,5S)-6-(4-ethoxyphenyl)-9,9-dimethyl-3,6-diazabicyclo[3.2.2]nonan-3-yl)ethan-1-one], the inhibition at 10 µM on LOX (LOX) came out at 79%.
Consider `CCOc1ccc(N2C[C@H]3CN(c4ccc(S(=O)(=O)CCN)cc4)C[C@@H]2C(C)(C)C3)cc1` [Example 33, 2-((4-((1R,5S)-6-(4-ethoxyphenyl)-9,9-dimethyl-3,6-diazabicyclo [3.2.2]nonan-3-yl)phenyl)sulfonyl)ethan-1-amine], for which, at LOX (setting [1]), the inhibition at 10 µM was 100%.
In the case of `CCOc1ccc(N2CC3CN(CCS(=O)(=O)CCN)CC3C2)cc1` (centres unmarked) [Example 4, 2-((2-(5-(4-ethoxyphenyl)hexahydropyrolo [3,4-c]pyrrol-2(1H)-yl)ethyl)sulfonyl)ethan-1-amine], at LOX (setting [1]), the inhibition at 10 µM was 100%.
As to `CCOc1ccc(N2C[C@H]3CN(C(=O)NCCS(=O)(=O)CCN)C[C@@H]2C(C)(C)C3)cc1` [Example 38, (1S,5S)—N-(2-((2-aminoethyl)sulfonyl)ethyl)-6-(4-ethoxyphenyl)-9,9-dimethyl-3,6-diazabicyclo[3.2.2]nonane-3-carboxamide], the inhibition at 10 µM on LOX (LOX) was 70%.
Turning to `CCOc1ccc(N2C[C@@H]3C[C@H]2CN3C(=O)CS(=O)(=O)CCN)cc1` [Example 8, 2-((2-aminoethyl)-sulfonyl)-1-((1S,4S)-5-(4-ethoxyphenyl)-2,5-diazabicyclo-[2.2.1]heptan-2-yl)-ethan-1-one], the IC50 at LOXL3 was found to be 550 nM; on LOX (MDCK cysts, read-out: Cyst LOX IC50), 370 nM. Besides, at LOX (LOX, 2.5 uM (stated in cell), DMSO = 0%, BAPN 1 mM = 100% inhibition, read-out: Cyst LOX (% inhibition) @ 2.5 uM), the inhibition at 2.5 µM stood at 46%.
As to `NCCS(=O)(=O)CC(=O)N1CCN(c2ccccc2)CC1` [Example 13, 2-((2-Aminoethyl)-sulfonyl)-1-(4-phenylpiperazin-1-yl)ethan-1-one], the concentration for half-maximal inhibition (IC50) at LOXL3 is 280 nM.
